Biological target: Coagulation factor XI (Homo sapiens, UniProt P03951)
Sequence (P03951 19-387 limits assumed): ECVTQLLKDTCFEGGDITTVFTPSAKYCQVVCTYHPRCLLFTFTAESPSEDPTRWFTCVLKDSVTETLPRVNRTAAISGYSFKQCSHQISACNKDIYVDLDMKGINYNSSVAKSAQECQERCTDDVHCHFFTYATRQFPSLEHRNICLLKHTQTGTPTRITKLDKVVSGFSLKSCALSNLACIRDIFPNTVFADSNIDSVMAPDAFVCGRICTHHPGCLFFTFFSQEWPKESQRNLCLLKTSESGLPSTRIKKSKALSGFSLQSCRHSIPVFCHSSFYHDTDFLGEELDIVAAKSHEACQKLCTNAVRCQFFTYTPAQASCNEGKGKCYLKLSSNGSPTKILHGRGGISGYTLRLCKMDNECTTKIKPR
Sequence (P03951 388-625 limits assumed): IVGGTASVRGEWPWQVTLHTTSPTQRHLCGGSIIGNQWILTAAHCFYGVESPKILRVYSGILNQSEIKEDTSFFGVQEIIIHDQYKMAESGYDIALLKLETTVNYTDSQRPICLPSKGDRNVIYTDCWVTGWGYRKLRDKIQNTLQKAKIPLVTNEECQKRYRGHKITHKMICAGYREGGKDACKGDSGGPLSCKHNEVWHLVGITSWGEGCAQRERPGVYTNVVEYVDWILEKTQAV

Compound | IC50
N=C(N)NCCC[C@H](NS(=O)(=O)c1ccc2ccccc2c1)C(=O)c1nccs1 | 86 µM
CC(C)[C@H](CC(=O)NCc1ccc(Cl)c(Cl)c1)C(=O)N[C@@H](CCCN=C(N)N)C(=O)c1nccs1 | 6.22 µM
NC(N)=NCCC[C@H](NC(=O)Cc1ccc(Cl)c(Cl)c1)C(=O)c1nccs1 | 37.9 µM
CC(C)[C@H](NC(=O)N[C@@H]1C[C@@H]2C[C@H]([C@H]1C)C2(C)C)C(=O)N[C@@H](CCCN=C(N)N)C(=O)c1nccs1 | 0.713 µM
CC(C)[C@H](NC(=O)N[C@H]1C[C@H]2C[C@@H]([C@@H]1C)C2(C)C)C(=O)N[C@@H](CCCN=C(N)N)C(=O)c1nccs1 | 3.31 µM
N=C(N)NCCC[C@H](NS(=O)(=O)c1cccc2ccccc12)C(=O)c1nccs1 | 250 µM
N=C(N)NCCC[C@H](NC(=O)c1cc(F)cc2c1OCOC2)C(=O)c1nccs1 | 5.9 µM
CC(C)[C@H](NC(=O)[C@H](O)c1cccc(F)c1)C(=O)N[C@@H](CCCN=C(N)N)C(=O)c1nccs1 | 0.956 µM
NC(N)=NCCC[C@H](NC(=O)c1cccc2ccccc12)C(=O)c1nccs1 | 2.25 µM
CC(C)[C@H](NC(=O)NCc1ccc(Cl)c(Cl)c1)C(=O)N[C@@H](CCCN=C(N)N)C(=O)c1nccs1 | 0.48 µM
NC(N)=NCCC[C@H](NC(=O)Cc1cccc2ccccc12)C(=O)c1nccs1 | > 250 µM
CC(C)CC(=O)N[C@@H](CCCN=C(N)N)C(=O)c1nccs1 | 123 µM
N=C(N)NCCC[C@H](NC(=O)c1ccc2ccccc2c1)C(=O)c1nccs1 | > 200 µM
CC(C)[C@H](NC(=O)[C@H](O)c1cccc(Cl)c1)C(=O)N[C@@H](CCCN=C(N)N)C(=O)c1nccs1 | 0.116 µM

Source: ChEMBL document CHEMBL1148656, “Synthesis, SAR exploration, and X-ray crystal structures of factor XIa inhibitors containing an alpha-ketothiazole arginine” (Bioorg Med Chem Lett, 2006)
